Where a name gives a salt, the structure may show the parent alone.
Experiments:
estrogen receptor = assay: Testing of antiestrogens for SERM function
rat vagina [1] = assay: Comparison of SERMs: vaginal epithelium morphology in the OVX rat (Example 2); conditions: OVX rats, 0.5 mg/kg oral daily
Procedure: Ten to twelve week-old female Sprague-Dawley rats (Crl:CD(SD)Br) (Charles River Laboratory, St-Constant, Canada) weighing 215-265 g at time of ovariectomy were used. The animals were housed individually in an environmentally-controlled room (temperature: 22±3° C.; humidity: 50±20%; 12-h light-12-h dark cycles, lights on at 07:15 h). The animals were allowed free access to tap water and a certified rodent feed (Lab Diet 5002 (pellet), Ralston Purina, St-Louis, Mo.).
Different experiments were performed: two 20-day and two 8-month studies. In each of the two first experiments, the animals were randomly distributed between 3 groups of 13 or 14 animals as follows: 1) Intact control; 2) Ovariectomized (OVX) control; 3) OVX+raloxifene (0.5 mg/kg), or, 3) OVX+LY 363381 (0.5 mg/kg). […] In the other 8-month study, the animals were randomly distributed between 3 groups of 10-11 animals as follows: 1) Intact control; 2) Ovariectomized (OVX) control; 3) OVX+lasofoxifene (0.5 mg/kg). […] The tested compounds were then given once daily by oral gavage as a suspension in 0.4% methylcellulose (0.5 ml/rat) from day 1 to day 20 of the study or from day 1 to week 32 of the study.
Twenty-four hours after the last dosing, the animals were sacrificed under isoflurane anesthesia by exsanguination. The vaginae were collected and immersed in 10% neutral buffered formalin immediately after resection. […] The segments were then routinely processed and embedded in paraffin blocks. When appropriate, all the segments were positioned in the paraffin block in a sequence corresponding to their original anatomical position and oriented perpendicular to the surface of the block, thus allowing the segments to be cut in cross-sections. For each animal, a 4 μm-thick paraffin section was cut and stained with haematoxylin-eosin for morphological examination.

rat vagina [2] = assay: Vaginal weight after 36 weeks of treatment; format: in vivo; conditions: OVX rats, 36 wk, versus OVX
Description: (§1) Animals from the intact and OVX control groups received the vehicle alone.
(§2) Twenty-four hours after the last dosing, overnight fasted animals were sacrificed under isoflurane anesthesia by exsanguination at the abdominal aorta (9 animals per group) or by intracardiac perfusion with 10% neutral buffered formalin (5 animals per group). Vaginae from non-perfused animals were collected and weighed, while the vaginae collected from perfused animals were marked with black ink on the ventral side, and then trimmed as described below.
(§3) Data are presented as means±SEM of 8-9 animals per group for vaginal weight or 5 animals per group for vaginal layer thickness determinations. Statistical significance was determined according to the multiple-range test of Duncan-Kramer (Kramer, 1956, Biometrics, 12: 307-310).

rat vagina [3] = assay: Histomorphometry: thickness of vaginal layers at the fifth segment; format: in vivo; conditions: OVX rats, 36 wk, fifth segment, mean±SEM
Description: as §1, §2
(§4) The entire vagina of each perfused animal was post-fixed in 10% neutral buffered formalin.
Measurements of the different vaginal layers were performed on the fifth segment (FIG. 1), which is approximately halfway between the middle region and the portio vaginalis uteri (segment 7). […] Images were captured with a DC-330 3CCD color camera (Dage-MTI, Michigan City, Ind., USA) and quantified using Image-Pro Plus 3.0 software (Media Cybernetics, Silver Spring, Md., USA). Thus, using a ×5 objective (Leica Microsystems, Willowdale, Ont., Canada), 3 to 4 thickness measurements per layer were obtained from representative areas of the epithelium and muscularis, and for the three vaginal layers together. The total vaginal thickness, the thickness of the epithelium and the thickness of the muscularis were thus measured. The thickness of the lamina propria was obtained by subtracting the thickness of the epithelium and muscularis from total vaginal thickness.
as §3

rat vagina [4] = assay: Histological evaluation of epithelium, lamina propria and muscularis in the seven rat vaginal segments; format: in vivo; conditions: OVX rats, 36 wk
Description: The animals were housed individually and were allowed free access to water and rodent food (Lab Diet 5002, Ralston Purina, St-Louis, Mo.).
as §1, §2, §4
The degree of compactness of collagen fibers in the vagina was categorized as low, moderate and high (FIGS. 6A-6C, respectively), as observed in the area proximal to the epithelium. <<Low>> and <<moderate compactness>> were associated with the presence of coarse collagen fibers loosely or less loosely aggregated together, respectively, while <<high compactness>> was the term used to describe tightly packed fine collagen fibers, displaying a smooth, textured appearance. In all the animals, there were relatively few fibrocytes in proportion to the amount of collagen, and they appeared predominantly flattened and shrunken.

AR = assay: Immunohistochemistry of AR in fifth vaginal segment; format: in vivo, rat; conditions: OVX rats, 36 wk
Procedure: as §1
(§5) Immunostaining was performed using Zymed SP kits (San Francisco, Calif.). Paraffin sections (4 μm) were deparaffinized in toluene and rehydrated through ethanol. Endogenous peroxidase activity was eliminated by preincubation with 3% H2O2 in methanol for 30 min. A microwave retrieval technique using citrate buffer (Tacha and Chen, 1994) was applied. After cooling the slides, non-specific binding was blocked using 10% goat serum for 20 min. Sections were then incubated for 1.5 h at room temperature with ERα (AB-1, Calbiochem, California), AR (N-20, Santa Cruz Biotechnology, California) or PR (Ab-4, NeoMarkers, California) antibodies, at 1:200, 1:250 and 1:250 respectively. After washing in PBS buffer, sections were incubated with biotinylated anti-rabbit secondary antibody for 10 min and thereafter with streptavidin-peroxidase for another 10 min. Diaminobenzidine was used as the chromogen to visualize the biotin/streptavidin-peroxidase complex, under microscope monitoring. Counterstaining was performed using #2 Gill's hematoxylin for 30 sec. For controls, immunoabsorption with an excess of the peptide used to raise the antibody, or substitution with non immune rabbit IgG, was performed.

PR = assay: Immunohistochemistry of PR in fifth vaginal segment; format: in vivo, rat; conditions: OVX rats, 36 wk
Procedure: as §1, §5

[5] = Acolbifene 2.5, Premarin 0.5 mg/kg oral, DHEA 80 mg/kg dorsal skin, segment 1

For `CC/C(=C(/c1ccc(OCCN(C)C)cc1)c1cccc(O)c1)c1ccccc1` [Droloxifene], the “function as SERM” value (estrogen receptor) was “found to function as SERMs”.

With `O=C(c1ccc(OCCN2CCCCC2)cc1)c1c(-c2ccc(O)cc2)sc2cc(O)ccc12` [Raloxifene] the “function as SERM” value (estrogen receptor) was “found to function as SERMs” and the “mucous cell layer(s) overlying the basal cell layer, middle of the vagina” value (rat vagina [1]; 20-day study) was “many”.

In the case of `C[C@]12CC[C@@H]3c4ccc(O)cc4C[C@@H](CCCCCCCCC[S+]([O-])CCCC(F)(F)C(F)(F)F)[C@H]3[C@@H]1CC[C@@H]2O` (stereo partly shown) [ICI 182,780], the “function as SERM” value (estrogen receptor) is reported as “found not to function as SERM”.

In the case of `CC/C(=C(\c1ccccc1)c1ccc(OCCN(C)C)cc1)c1ccccc1` [Tamoxifen, (Z)-2-[4-(1,2-diphenyl-1-butenyl)]-N,N-dimethylethanamine], the “function as SERM” value (estrogen receptor) is reported as “found to function as SERMs”.

`CC/C(=C(\c1ccccc1)c1ccc(/C=C/C(=O)O)cc1)c1ccccc1` [GW-5638] was tested, and the “function as SERM” value (estrogen receptor) was “found to function as SERMs”.

In the case of `Cc1c(-c2ccc(O)cc2)n(Cc2ccc(OCCN3CCCCC3)cc2)c2ccc(O)cc12` [ERA-923], the “mucous cell layer(s) overlying the basal cell layer, middle of the vagina” value (rat vagina [1]; 8-month study) is reported as “one”.

In the case of `COc1ccc(-c2sc3cc(O)ccc3c2Oc2ccc(OCCN3CCCCC3)cc2)cc1` [LY 363381], the “mucous cell layer(s) overlying the basal cell layer, middle of the vagina” value (rat vagina [1]; 20-day study) is reported as “many”.

In the case of `CC1=C(c2ccc(O)cc2)[C@H](c2ccc(OCCN3CCCCC3)cc2)Oc2cc(O)ccc21.Cl` [Acolbifene], the “effect on vaginal weight” value (rat vagina [2]) is reported as “no effect”, the “total vaginal wall thickness” value (rat vagina [3]; OVX 128±3, intact 262±39) is reported as 108±8 μm and the lamina propria thickness (rat vagina [3]; total minus epithelium and muscularis, OVX 76±2, intact 135±28) is reported as 60±8 μm. For the same compound, the “compactness of collagen fibers (lamina propria)” value (rat vagina [4]; [5]) was “M-M”, the lamina propria thickness (rat vagina [4]; [5]) was “M-M” and the epithelium morphology (rat vagina [4]; Acolbifene 2.5, Premarin 0.5 mg/kg oral, DHEA 80 mg/kg dorsal skin, segment 2) was “SCM-A”. The epithelium morphology (rat vagina [4]; Acolbifene 2.5, Premarin 0.5 mg/kg oral, DHEA 80 mg/kg dorsal skin, segment 3) was “SCM-A”, the epithelium morphology (rat vagina [4]; Acolbifene 2.5, Premarin 0.5 mg/kg oral, DHEA 80 mg/kg dorsal skin, segment 4) was “SCM-A” and the epithelium morphology (rat vagina [4]; Acolbifene 2.5, Premarin 0.5 mg/kg oral, DHEA 80 mg/kg dorsal skin, segment 5) was “SCM-A”. The epithelium morphology (rat vagina [4]; Acolbifene 2.5, Premarin 0.5 mg/kg oral, DHEA 80 mg/kg dorsal skin, segment 6) was “SCM-A”, the epithelium morphology (rat vagina [4]; Acolbifene 2.5, Premarin 0.5 mg/kg oral, DHEA 80 mg/kg dorsal skin, segment 7) was “SCM-A” and the “epithelium thickness of segment 1 (external opening)” value (rat vagina [4]; OVX controls 4-6 layers) was 9-11 cell layers. The “animals showing signs of minimal inflammation” value (rat vagina [4]; moderate to severe inflammation in all OVX animals) was “three out of five”, the “AR: labeling intensity” value (AR; epithelium) was “++” and the “AR: semi-quantitative evaluation of labeled nuclei” value (“AR: semi-quantitative evaluation” below) (AR; epithelium) was 2. For the same compound, the “AR: labeling intensity” value (AR; lamina propria) was “+++”, the “AR: semi-quantitative evaluation” value (AR; lamina propria) was 1 and the “AR: labeling intensity” value (AR; muscularis) was “+++”. The “AR: semi-quantitative evaluation” value (AR; muscularis) was 1, the “mucous cell layer(s) overlying the basal cell layer, middle of the vagina” value (rat vagina [1]; 8-month study) was “one” and the “PR: semi-quantitative evaluation of labeled nuclei” value (“PR: semi-quantitative evaluation” below) (PR; epithelium) was 0. The “PR: semi-quantitative evaluation” value (PR; lamina propria) was 0 and the “PR: semi-quantitative evaluation” value (PR; muscularis) was 0.

`Cc1c(-c2ccc(O)cc2)n(Cc2ccc(OCCN3CCCCCC3)cc2)c2ccc(O)cc12` [TSE-424] was tested, and the “function as SERM” value (estrogen receptor) was “found to function as SERMs” and the “mucous cell layer(s) overlying the basal cell layer, middle of the vagina” value (rat vagina [1]; 8-month study) was “one”.

`CC1=C(c2ccc(OC(=O)C(C)(C)C)cc2)[C@H](c2ccc(OCCN3CCCCC3)cc2)Oc2cc(OC(=O)C(C)(C)C)ccc21` [EM-800] was tested, and the “function as SERM” value (estrogen receptor) was “found to function as SERMs”.

In the case of `Oc1ccc2c(c1)CC[C@H](c1ccccc1)[C@@H]2c1ccc(OCCN2CCCC2)cc1` [lasofoxifene, (−)-cis-(5R,6S)-6-phenyl-5-[4-(2-pyrrolidin-1-ylethoxy)phenyl]-5,6,7,8-tetrahydronaphthalen-2-ol, D-(−)-tartrate salt], the “function as SERM” value (estrogen receptor) is reported as “found to function as SERMs” and the “mucous cell layer(s) overlying the basal cell layer, middle of the vagina” value (rat vagina [1]; 8-month study) is reported as “many”.

For `COc1ccc(-c2sc3cc(O)ccc3c2Oc2ccc(OCCN3CCCCC3)cc2)cc1` [Arzoxifene], the “function as SERM” value (estrogen receptor) was “found to function as SERMs”.
